Reference: PubChem BioAssay AID330 (DTP/NCI, 2004)
Values joined by “and” are separate entries in the source; they are usually repeats but may differ in a detail not shown here. Equal entries are not always repeated. Toxic doses and inconclusive results are not listed. Numbered stars: 1 amine (or outer) side, 2 acyl side, 3 side chain; on linkers, the order of the positions; unused ones are H or OH. Bridge positions count the residues as written; N and C are the ends. Square brackets hold non-standard residues; d marks the D form. Peptide text beside a SMILES is read from it. I, II: the chains in the order shown. Actinocin(1to9) = Cc1c2oc3c(C)ccc(C(=O)[*:2])c3nc-2c(C(=O)[*:1])c(N)c1=O; Hyp = O=C(O)[CH]1C[CH](O)CN1; NMeV = CN[CH](C(=O)O)C(C)C; Sar = CNCC(=O)O

Tested on: P388 leukemia ip, CD2F1 mice, survival T/C
Assay: NCI In Vivo Anticancer Drug Screen. Data for tumor model P388 Leukemia (intraperitoneal) in CD2F1 (CDF1) mice
Conditions: endpoint: median survival time, higher = longer survival
Procedure, shortened: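 Mice carrying the transplanted tumor received test compound or vehicle. Survival was recorded in each group, and the value is the treated-group measurement divided by that of the vehicle-treated control group.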

[1] = dose: 100.0 mg/kg/injection, schedule: Q01DX009 (ip), vehicle: saline
[2] = dose: 200.0 mg/kg/injection, schedule: Q01DX009 (ip), vehicle: saline
[3] = dose: 100.0 mg/kg/injection, schedule: Q04DX003 (ip), vehicle: saline with Tween-80
[4] = dose: 200.0 mg/kg/injection, schedule: Q04DX003 (ip), vehicle: saline with Tween-80
[5] = dose: 400.0 mg/kg/injection, schedule: Q04DX003 (ip), vehicle: saline with Tween-80
[6] = dose: 50.0 mg/kg/injection, schedule: Q01DX005 (ip), vehicle: saline with Tween-80
[7] = dose: 100.0 mg/kg/injection, schedule: Q01DX005 (ip), vehicle: saline with Tween-80
[8] = dose: 200.0 mg/kg/injection, schedule: Q01DX005 (ip), vehicle: saline with Tween-80
[9] = dose: 60.0 mg/kg/injection, schedule: Q01DX005 (ip), vehicle: saline with Tween-80
[10] = dose: 120.0 mg/kg/injection, schedule: Q01DX005 (ip), vehicle: saline with Tween-80
[11] = dose: 50.0 mg/kg/injection, schedule: Q01DX009 (ip), vehicle: saline with Tween-80
[12] = dose: 100.0 mg/kg/injection, schedule: Q01DX009 (ip), vehicle: saline with Tween-80
[13] = dose: 200.0 mg/kg/injection, schedule: Q01DX009 (ip), vehicle: saline with Tween-80
[14] = dose: 50.0 mg/kg/injection, schedule: Q01DX009 (ip), vehicle: saline

O=S(=O)(O)c1cncc(S(=O)(=O)O)n1
T/C [1]: 110 % of control | T/C (dose: 100.0 mg/kg/injection, schedule: Q04DX003 (ip), vehicle: saline): 100 % of control | T/C [2]: 105 % of control | T/C (dose: 200.0 mg/kg/injection, schedule: Q04DX003 (ip), vehicle: saline): 104 % of control | T/C (dose: 400.0 mg/kg/injection, schedule: Q01DX009 (ip), vehicle: saline): 100 % of control | T/C (dose: 400.0 mg/kg/injection, schedule: Q04DX003 (ip), vehicle: saline): 100 % of control

CCN(CC)Cc1cc(C)c(O)c(N=Nc2cc(OC)c(N=Nc3ccc([N+](=O)[O-])cc3)cc2OC)c1C
T/C [3]: 91 % of control | T/C [4]: 94 % of control | T/C [5]: 94 % of control

O=C1CN(Cc2cccc(Cl)c2)CC(=O)N2Cc3ccccc3CN12
T/C [6]: 106 % of control | T/C [7]: 98 % of control

CC(C)NC(=O)OCc1c(COC(=O)NC(C)C)c(-c2ccc(F)c(F)c2)n2c1CCC2
T/C (dose: 3.13 mg/kg/injection, schedule: Q01DX009 (ip), vehicle: distilled water + Tween-80): 151 % of control | T/C (dose: 6.25 mg/kg/injection, schedule: Q01DX009 (ip), vehicle: distilled water + Tween-80): 160 % of control | T/C (dose: 12.5 mg/kg/injection, schedule: Q01DX009 (ip), vehicle: distilled water + Tween-80): 172 % of control and 178 % of control | T/C (dose: 25.0 mg/kg/injection, schedule: Q01DX009 (ip), vehicle: distilled water + Tween-80): 123 % of control and 211 % of control | T/C (dose: 50.0 mg/kg/injection, schedule: Q01DX009 (ip), vehicle: distilled water + Tween-80): 109 % of control and 92 % of control

CCOc1ccc(S(=O)(=O)c2ccc(C)cc2)c2c1no[n+]2[O-]
T/C (dose: 3.75 mg/kg/injection, schedule: Q01DX009 (ip), vehicle: saline with Tween-80): 101 % of control | T/C (dose: 7.5 mg/kg/injection, schedule: Q01DX009 (ip), vehicle: saline with Tween-80): 99 % of control and 95 % of control | T/C (dose: 15.0 mg/kg/injection, schedule: Q01DX009 (ip), vehicle: saline with Tween-80): 107 % of control

CSc1ccc(Cl)cc1NC(=O)N(C)C
T/C [3]: 98 % of control | T/C [4]: 98 % of control | T/C [5]: 96 % of control

COc1cccc2c1C(=O)c1c(O)c3c(c(O)c1C2=O)CC(O)(C(=O)COC(C)C)CC3OC1CC(N)C(O)C(C)O1 (stereo not given)
T/C (dose: 3.13 mg/kg/injection, schedule: Q04DX003 (ip), vehicle: water): 97 % of control | T/C (dose: 6.25 mg/kg/injection, schedule: Q04DX003 (ip), vehicle: water): 100 % of control | T/C (dose: 12.5 mg/kg/injection, schedule: Q04DX003 (ip), vehicle: water): 100 % of control | T/C (dose: 25.0 mg/kg/injection, schedule: Q04DX003 (ip), vehicle: water): 119 % of control | T/C (dose: 50.0 mg/kg/injection, schedule: Q04DX003 (ip), vehicle: water): 109 % of control

CC(SCCCCCCCCCCCCSC(C)C(=O)O)C(=O)O (stereo not given)
T/C [6]: 106 % of control | T/C [7]: 97 % of control | T/C [8]: 100 % of control

CNC(=O)N(N=O)c1[nH]c(=O)ncc1Cl
T/C [9]: 116 % of control | T/C [10]: 116 % of control

CCCOc1cc2c(cc1C(C)(C)c1ccccc1)OCO2
T/C [6]: 95 % of control | T/C [7]: 100 % of control

Cc1c2oc3c(C)ccc(C(=O)NC4C(=O)NC(C(C)C)C(=O)N5CCCC5C(=O)N(C)CC(=O)N(C)C(C(C)C)C(=O)OC4C)c3nc-2c(C(=O)NC2C(=O)NC(C(C)C)C(=O)N3CC(O)CC3C(=O)N(C)CC(=O)N(C)C(C(C)C)C(=O)OC2C)c(N)c1=O (stereo not given) (I: TV[Hyp][Sar][NMeV] / II: TVP[Sar][NMeV]; ester I:1-I:C, II:1-II:C; linker I:N-II:N via Actinocin(1to9); configuration not given here)
T/C (dose: 0.1 mg/kg/injection, schedule: Q01DX009 (ip), vehicle: Klucel (hydroxypropylcellulose) (HPC)): 221 % of control | T/C (dose: 0.2 mg/kg/injection, schedule: Q01DX009 (ip), vehicle: Klucel (hydroxypropylcellulose) (HPC)): 108 % of control | T/C (dose: 0.2 mg/kg/injection, schedule: Q01DX009 (ip), vehicle: water): 151 % of control | T/C (dose: 0.4 mg/kg/injection, schedule: Q01DX009 (ip), vehicle: water): 186 % of control

O=C(Cc1ccccc1)CC(CC(=O)Cc1ccccc1)c1ccccc1
T/C [6]: 94 % of control | T/C [7]: 89 % of control | T/C [8]: 103 % of control

Cc1ccc(Oc2nc(=O)c3c(o2)CC(C)(C)C3)cc1
T/C (dose: 12.5 mg/kg/injection, schedule: Q01DX009 (ip), vehicle: saline with Tween-80): 106 % of control | T/C (dose: 25.0 mg/kg/injection, schedule: Q01DX009 (ip), vehicle: saline with Tween-80): 106 % of control and 112 % of control | T/C [11]: 103 % of control and 106 % of control and 114 % of control | T/C [12]: 120 % of control and 96 % of control

C=C1COC(O)(C(OC)C(O)CC2CC(=O)NC(=O)C2)C1C (stereo not given)
T/C (dose: 0.01 mg/kg/injection, schedule: Q01DX009 (ip), vehicle: water): 105 % of control | T/C (dose: 0.03 mg/kg/injection, schedule: Q01DX009 (ip), vehicle: water): 104 % of control | T/C (dose: 0.06 mg/kg/injection, schedule: Q01DX009 (ip), vehicle: water): 111 % of control | T/C (dose: 0.12 mg/kg/injection, schedule: Q01DX009 (ip), vehicle: water): 117 % of control

O=NN(CC(=O)OCc1ccccc1)NC(=O)OCc1ccccc1
T/C (dose: 12.5 mg/kg/injection, schedule: Q01DX009 (ip), vehicle: other): 96 % of control | T/C (dose: 25.0 mg/kg/injection, schedule: Q01DX009 (ip), vehicle: other): 97 % of control | T/C (dose: 50.0 mg/kg/injection, schedule: Q01DX009 (ip), vehicle: other): 94 % of control | T/C (dose: 100.0 mg/kg/injection, schedule: Q01DX009 (ip), vehicle: other): 96 % of control | T/C (dose: 200.0 mg/kg/injection, schedule: Q01DX009 (ip), vehicle: other): 96 % of control

C=CCSc1ccc(Cl)cc1[N+](=O)[O-]
T/C (dose: 50.0 mg/kg/injection, schedule: Q01DX009 (ip), vehicle: Klucel (hydroxypropylcellulose) (HPC)): 101 % of control | T/C (dose: 100.0 mg/kg/injection, schedule: Q01DX009 (ip), vehicle: Klucel (hydroxypropylcellulose) (HPC)): 100 % of control | T/C (dose: 200.0 mg/kg/injection, schedule: Q01DX009 (ip), vehicle: Klucel (hydroxypropylcellulose) (HPC)): 100 % of control

CC1(C)COC(CCCCCO)=N1
T/C [11]: 103 % of control | T/C [12]: 97 % of control | T/C [13]: 92 % of control

CCOC(=O)c1cnc(NCCCCCCCCNc2ncc(C(=O)OCC)c(=O)[nH]2)[nH]c1=O
T/C [14]: 103 % of control | T/C [1]: 102 % of control | T/C [2]: 90 % of control and 97 % of control

COC(=O)c1nnc(C(=O)OC)c2c1c1ccccc1n2C(C)=O
T/C (dose: 100.0 mg/kg/injection, schedule: Q04DX002 (ip), vehicle: saline with Tween-80): 99 % of control | T/C (dose: 200.0 mg/kg/injection, schedule: Q04DX002 (ip), vehicle: saline with Tween-80): 99 % of control | T/C (dose: 400.0 mg/kg/injection, schedule: Q04DX002 (ip), vehicle: saline with Tween-80): 99 % of control

CCCCCN(C)C12CN3CN(CN(C3)C1)C2
T/C [14]: 103 % of control | T/C [1]: 103 % of control | T/C [2]: 99 % of control

CC(=O)OCC1=C(c2ccccc2)S(=O)(=O)c2ccccc2C1=O
T/C (dose: 12.5 mg/kg/injection, schedule: Q01DX005 (ip), vehicle: saline with Tween-80): 108 % of control | T/C (dose: 25.0 mg/kg/injection, schedule: Q01DX005 (ip), vehicle: saline with Tween-80): 106 % of control

O=C(N/C(=C\c1ccccc1Cl)c1nc2ccccc2s1)c1ccccc1
T/C [9]: 113 % of control | T/C [10]: 113 % of control | T/C (dose: 240.0 mg/kg/injection, schedule: Q01DX005 (ip), vehicle: saline with Tween-80): 102 % of control

CN1N=Cc2sc(Br)c(Br)c2B1O
T/C [11]: 94 % of control | T/C [12]: 101 % of control | T/C [13]: 94 % of control

COc1cc(-c2nnc(SCCN(C)C)o2)cc(OC)c1OC
T/C (dose: 50.0 mg/kg/injection, schedule: Q04DX002 (ip), vehicle: water): 100 % of control | T/C (dose: 100.0 mg/kg/injection, schedule: Q04DX002 (ip), vehicle: water): 101 % of control | T/C (dose: 200.0 mg/kg/injection, schedule: Q04DX002 (ip), vehicle: water): 100 % of control
